Measured values reported in ChEMBL document CHEMBL3112536, “Pd-N-heterocyclic carbene catalyzed synthesis of piperidine alkene-alkaloids and their anti-cancer evaluation” (Bioorg Med Chem Lett, 2014).
Converted amounts (≈) assume the structure as drawn.

Columns and labels:
Format in all cases: functional, cell-based
A549 = test: Cytotoxicity against human A549 cells assessed as growth inhibition after 24 hrs by MTT assay; details: A549, 24 h
OVCAR-3 = test: Cytotoxicity against human OVCAR3 cells assessed as growth inhibition after 24 hrs by MTT assay; details: OVCAR-3, 24 h
MCF7 = test: Cytotoxicity against human MCF7 cells assessed as growth inhibition after 24 hrs by MTT assay; details: MCF7, 24 h

Row | SMILES | IC50 (A549) [µg/mL] | IC50 (OVCAR-3) [µg/mL] | IC50 (MCF7) [µg/mL]
1 | CCc1ccc(/C=C/[C@@H]2CCCCN2)cc1 | 5.94 (≈ 27.6 µM) | 5.07 (≈ 23.5 µM) | 4.13 (≈ 19.2 µM)
2 | Cc1ccc(/C=C/[C@@H]2CCCCN2)cc1 | 8.56 (≈ 42.5 µM) | 8.48 (≈ 42.1 µM) | 5.35 (≈ 26.6 µM)
3 | CC(=O)c1ccc(/C=C/[C@@H]2CCCCN2)cc1 | 3.69 (≈ 16.1 µM) | 2.18 (≈ 9.51 µM) | 2.7 (≈ 11.8 µM)
4 | CN1CCCC[C@H]1/C=C/c1ccc(O)cc1 | 3.45 (≈ 15.9 µM) | 1.94 (≈ 8.93 µM) | 1.51 (≈ 6.95 µM)
5 | FC(F)(F)c1ccc(/C=C/[C@@H]2CCCCN2)cc1 | 2.82 (≈ 11 µM) | 0.99 (≈ 3.88 µM) | 1.25 (≈ 4.9 µM)
6 | Cc1cccc(C)c1/C=C/[C@@H]1CCCCN1 | 7.28 (≈ 33.8 µM) | 6.27 (≈ 29.1 µM) | 4.29 (≈ 19.9 µM)
7 | COc1ccccc1/C=C/[C@@H]1CCCCN1 | 4.94 (≈ 22.7 µM) | 4.78 (≈ 22 µM) | 3.81 (≈ 17.5 µM)
8 | COc1ccc(/C=C/[C@@H]2CCCCN2)cc1 | 4.33 (≈ 19.9 µM) | 3.31 (≈ 15.2 µM) | 3.57 (≈ 16.4 µM)
9 | C(=C\[C@@H]1CCCCN1)/c1ccccc1 | 9.99 (≈ 53.3 µM) | 10.5 (≈ 55.9 µM) | 9.15 (≈ 48.9 µM)
10 | O=[N+]([O-])c1ccc(/C=C/[C@@H]2CCCCN2)cc1 | 3.27 (≈ 14.1 µM) | 1.02 (≈ 4.39 µM) | 2.15 (≈ 9.26 µM)
